In the assay the target is T1, Human pyruvate kinase R (PKR) (Homo sapiens, UniProt P30613).
T1 construct: Human pyruvate kinase R (PKR), residues 14-574; 6x-His (N, cleaved yes); 8x-Arg (N, cleaved yes); SUMO (N, cleaved yes); host or cells: E. coli
In words: Biochemical assay for activation of pyruvate kinase R (Kinase-Glo luminescence measurement of ATP generation). As to conditions: for AC50: PKR biochemical assay, 0.1 nM PKR, 0.3 mM ADP, 2 mM FBP, 0.1 mM PEP; for Emax: maximal activation level relative to the activation level achieved by the literature compound AG-348 @ 10 μM. On the procedure:
Human pyruvate kinase R (PKR), residues 14-574, and human pyruvate kinase M2, residues 1-531, were cloned into expression plasmids and obtained from ATUM Bio (Newark, Calif.). Proteins were translated as fusions with 6×-His, 8×-Arg, and SUMO at the N-terminus. A third construct of human PKR was truncated, residues 50-574, and similarly cloned for use in crystallography experiments. All proteins were cloned, expressed in E. coli, and purified using similar protocols. Cells were grown at 30° C. in Luria-Bertani broth supplemented with 0.4% glucose to OD600=0.8 and induced with 0.4 mM IPTG at 16° C. for 18 hours. Cells were harvested by centrifugation, resuspended in 50 mM potassium phosphate pH 8.0, 500 mM NaCl, 25 mM imidazole pH 8.0, and 3 mM (3-mercaptoethanol. Cells were lysed using a LM20 microfluidizer from Microfluidics (Westwood, Mass.). The crude lysate was immediately supplemented with 0.2 mM phenylmethylsulfonyl fluoride (PMSF) and centrifuged at 20,000 g for 20 minutes. The soluble fraction was subsequently incubated with 2 mL Ni-NTA (GE Healthcare) per 1,000 ODs for 1 hour at 4° C. Following incubation with the Ni-NTA resin, lysate was removed by pelleting resin at 2,500 g for 3 minutes and washed 3 times with 9 bed volumes of 50 mM potassium phosphate pH 8.0, 500 mM NaCl, 25 mM imidazole, and 3 mM 3-mercaptoethanol. Following the batch wash Ni-NTA resin was loaded onto a gravity column and His-tagged protein was eluted with 6 bed volumes of 10 mM Tris/HCl pH 8.0, 200 mM NaCl, 500 mM imidazole, and 3 mM (3-mercaptoethanol. Eluted protein was dialyzed overnight against 10 mM Tris/HCl pH 8.0, 200 mM NaCl, and 1 mM DTT and the 6×-His-8×-Arg-SUMO-tag was cleaved using a 20:1 molar ratio of protein:3C protease. The protein was purified by anion exchange chromatography on a HiTrapQ or MonoQ 10/100 GL column (GE Healthcare) via a linear NaCl gradient and twice by size exclusion chromatography using a Superdex S200 26/60 column (GE Healthcare) run in 10 mM Tris/HCl pH 8.0, 200 mM NaCl, 10 mM MgCl2, 1 mM DTT. Proteins were concentrated to −12 mg/mL for crystallization and flash frozen for storage.
Biochemical Assay for Activation of Pyruvate Kinase R
Activation of pyruvate kinase R (PKR) and pyruvate kinase M2 (PKM2) were measured using a luminescence based measurement of ATP generation and the Kinase-Glo luminescent kinase reagent kit.

T1 sequence (P30613 14-574): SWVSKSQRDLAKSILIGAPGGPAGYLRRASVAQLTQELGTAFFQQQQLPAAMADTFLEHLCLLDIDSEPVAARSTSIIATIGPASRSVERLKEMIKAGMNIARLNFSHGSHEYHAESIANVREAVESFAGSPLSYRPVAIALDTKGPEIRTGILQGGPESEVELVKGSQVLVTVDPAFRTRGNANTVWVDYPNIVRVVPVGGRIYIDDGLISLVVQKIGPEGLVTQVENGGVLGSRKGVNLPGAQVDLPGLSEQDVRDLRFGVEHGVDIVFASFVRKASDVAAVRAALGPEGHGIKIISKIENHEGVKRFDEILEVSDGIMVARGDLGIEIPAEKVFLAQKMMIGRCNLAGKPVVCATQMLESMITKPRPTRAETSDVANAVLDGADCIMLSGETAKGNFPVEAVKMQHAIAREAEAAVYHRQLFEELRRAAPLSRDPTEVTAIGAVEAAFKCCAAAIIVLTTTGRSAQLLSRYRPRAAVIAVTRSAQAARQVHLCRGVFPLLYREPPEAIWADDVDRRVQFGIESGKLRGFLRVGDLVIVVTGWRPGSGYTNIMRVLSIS

What is called AC50 is the concentration giving half of the maximal activity seen. A lower AC50 goes with greater potency. In general, Emax refers to the size of the effect at its maximum, as opposed to the concentration needed. Compound `COc1ccc(-n2ncnc2CNC(=O)NCc2ncnn2-c2ccc(OC)cc2)cc1` [Compound 65, 1,3-bis({[1-(4-methoxyphenyl)-1H-1,2,4-triazol-5-yl]methyl})urea] returned an AC50 of 1800 nM and an Emax of 62%.

The compound `O=C(NCc1ncnn1-c1ccc2cccnc2c1)NCc1n[nH]c(=O)n1-c1ccc(Cl)c(F)c1` [Compound 98, 3-{[4-(4-chloro-3-fluorophenyl)-5-oxo-4,5-dihydro-1H-1,2,4-triazol-3-yl]methyl}-1-{[1-(quinolin-7-yl)-1H-1,2,4-triazol-5-yl]methyl}urea] returned an AC50 of 71 nM and an Emax of 60%.

On to `Cc1nc(CNC(=O)NCc2ncnn2-c2cc3ccccc3cn2)n(-c2ccc(Cl)c(F)c2)n1` [Compound 125, 1-{[1-(4-chloro-3-fluorophenyl)-3-methyl-1H-1,2,4-triazol-5-yl]methyl}-3-{[1-(isoquinolin-3-yl)-1H-1,2,4-triazol-5-yl]methyl}urea], for which the activity was half-maximal at 3800 nM (AC50) and the maximal effect (Emax) was 81%.

`Cc1nc(CNC(=O)N(C)Cc2ncnn2-c2ccc3scnc3c2)n(-c2ccc(Cl)c(F)c2)n1` [Compound 22, 1-{[1-(1,3-benzothiazol-5-yl)-1H-1,2,4-triazol-5-yl]methyl}-3-{[1-(4-chloro-3-fluorophenyl)-3-methyl-1H-1,2,4-triazol-5-yl]methyl}-1-methylurea] had an AC50 of 33 nM and an Emax of 83%.

On to `CCN(Cc1ncnn1-c1ccc(OC)nc1)C(=O)NCc1ncnn1-c1ccc(Cl)c(F)c1` [Compound 122, 3-{[1-(4-chloro-3-fluorophenyl)-1H-1,2,4-triazol-5-yl]methyl}-1-ethyl-1-{[1-(6-methoxypyridin-3-yl)-1H-1,2,4-triazol-5-yl]methyl}urea], for which half-maximal activity (AC50) was put at 190 nM and the Emax was determined as 42%.

For the compound `CCN(Cc1ncnn1-c1ccc(Cl)c(F)c1)C(=O)NCc1ncnn1CC1CCOCC1` [Compound 8, 3-{[1-(4-chloro-3-fluorophenyl)-1H-1,2,4-triazol-5-yl]methyl}-3-ethyl-1-({1-[(oxan-4-yl)methyl]-1H-1,2,4-triazol-5-yl}methyl)urea], the AC50 turned out to be 320 nM and the maximal effect (Emax) was found to be 59%.

As to `O=C(NCc1ncnn1-c1ccc(O)nc1)NCc1ncnn1-c1ccc(Cl)c(F)c1` [Compound 119, 3-{[1-(4-chloro-3-fluorophenyl)-1H-1,2,4-triazol-5-yl]methyl}-1-{[1-(6-hydroxypyridin-3-yl)-1H-1,2,4-triazol-5-yl]methyl}urea], the AC50 amounted to 1100 nM and the Emax was 31%.

With `Cc1nc(CNC(=O)NCc2ncnn2Cc2ccc(F)cc2)n(-c2ccc(Cl)c(F)c2)n1` [Compound 20, 3-{[1-(4-chloro-3-fluorophenyl)-3-methyl-1H-1,2,4-triazol-5-yl]methyl}-1-({1-[(4-fluorophenyl)methyl]-1H-1,2,4-triazol-5-yl}methyl)urea], the half-maximal activity concentration (AC50) turned out to be 51 nM and the maximal effect (Emax) came out at 97%.

For the compound `Cc1ccc(-n2ncnc2CN(C)C(=O)NCc2nc(C)nn2-c2ccc(Cl)c(F)c2)cn1` [Compound 79, 3-{[1-(4-chloro-3-fluorophenyl)-3-methyl-1H-1,2,4-triazol-5-yl]methyl}-1-methyl-1-{[1-(6-methylpyridin-3-yl)-1H-1,2,4-triazol-5-yl]methyl}urea], the activity was half-maximal at 160 nM (AC50) and the Emax was 53%.

As for `Cc1nc(CNC(=O)NCc2ncnn2-c2ccc3ncccc3c2)n(-c2ccc(Cl)c(F)c2)n1` [Compound 41, 1-{[1-(4-chloro-3-fluorophenyl)-3-methyl-1H-1,2,4-triazol-5-yl]methyl}-3-{[1-(quinolin-6-yl)-1H-1,2,4-triazol-5-yl]methyl}urea], the AC50 came to 40 nM and the Emax was 81%.

In turn, `O=C(NCc1ncnn1-c1ccc(Cl)c(F)c1)NCc1ncnn1-c1ccc(Cl)c(F)c1` [Compound 66, 1,3-bis({[1-(4-chloro-3-fluorophenyl)-1H-1,2,4-triazol-5-yl]methyl})urea] gave an AC50 of 13 nM and an Emax of 41%.

With `O=C(NCc1ncnn1-c1ccc(Cl)nc1)NCc1ncnn1-c1ccc(Cl)nc1` [Compound 116, 1,3-bis({[1-(6-chloropyridin-3-yl)-1H-1,2,4-triazol-5-yl]methyl})urea], half-maximal activity (AC50) was put at 89 nM and the maximal response (Emax) turned out to be 39%.

As to `CCN(Cc1ncnn1-c1ccc(Cl)c(F)c1)C(=O)NCc1ncnn1-c1ccc(O)nc1` [Compound 121, 3-{[1-(4-chloro-3-fluorophenyl)-1H-1,2,4-triazol-5-yl]methyl}-3-ethyl-1-{[1-(6-hydroxypyridin-3-yl)-1H-1,2,4-triazol-5-yl]methyl}urea], the AC50 was found to be 7800 nM and the Emax amounted to 47%.

For the compound `O=C(NCc1nnnn1-c1ccc(F)c(Cl)c1)NCc1nnnn1-c1ccc(F)c(Cl)c1` [Compound 70, 1,3-bis({[1-(3-chloro-4-fluorophenyl)-1H-1,2,3,4-tetrazol-5-yl]methyl})urea], the AC50 is 110 nM and the Emax stood at 64%.

`O=C(NCC1=NC2(CC2)C(=O)N1Cc1ccc(F)cc1)NCc1ncnn1-c1ccc2cccnc2c1` [Compound 110, 3-({6-[(4-fluorophenyl)methyl]-7-oxo-4,6-diazaspiro[2.4]hept-4-en-5-yl}methyl)-1-{[1-(quinolin-7-yl)-1H-1,2,4-triazol-5-yl]methyl}urea]: the activity was half-maximal at 61 nM (AC50) and the Emax worked out at 83%.

Take `Cc1nc(CNC(=O)NCc2ncnn2-c2ccc3cnccc3c2)n(-c2ccc(Cl)c(F)c2)n1` [Compound 82, 1-{[1-(4-chloro-3-fluorophenyl)-3-methyl-1H-1,2,4-triazol-5-yl]methyl}-3-{[1-(isoquinolin-6-yl)-1H-1,2,4-triazol-5-yl]methyl}urea]: the AC50 worked out at 270 nM and the Emax was 85%.

Take `COc1ccc(-n2ncnc2CNC(=O)NCc2ncnn2-c2ccc(Cl)c(F)c2)cn1` [Compound 118, 3-{[1-(4-chloro-3-fluorophenyl)-1H-1,2,4-triazol-5-yl]methyl}-1-{[1-(6-methoxypyridin-3-yl)-1H-1,2,4-triazol-5-yl]methyl}urea]: the activity was half-maximal at 47 nM (AC50) and the Emax was 36%.

In the case of `Cc1nc(CNC(=O)NCc2nc(CCO)nn2-c2ccc(Cl)c(F)c2)n(-c2ccc3cccnc3c2)n1` [Compound 94, 1-{[1-(4-chloro-3-fluorophenyl)-3-(2-hydroxyethyl)-1H-1,2,4-triazol-5-yl]methyl}-3-{[3-methyl-1-(quinolin-7-yl)-1H-1,2,4-triazol-5-yl]methyl}urea], the AC50 came out at 730 nM and the Emax turned out to be 87%.

Consider `O=C(NCc1ncnn1-c1ccc(Cl)c(F)c1)NCc1ncnn1-c1cnc2cc(F)ccc2c1` [Compound 145, 1-{[1-(4-chloro-3-fluorophenyl)-1H-1,2,4-triazol-5-yl]methyl}-3-{[1-(7-fluoroquinolin-3-yl)-1H-1,2,4-triazol-5-yl]methyl}urea], for which the concentration at half-maximal activity (AC50) amounted to 51 nM and the Emax was found to be 76%.

As to `Cc1nc(CNC(=O)NCc2ncnn2CC2(C)CCOCC2)n(-c2ccc(Cl)c(F)c2)n1` [Compound 12, 3-{[1-(4-chloro-3-fluorophenyl)-3-methyl-1H-1,2,4-triazol-5-yl]methyl}-1-({1-[(4-methyloxan-4-yl)methyl]-1H-1,2,4-triazol-5-yl}methyl)urea], half-maximal activity (AC50) was put at 180 nM and the Emax turned out to be 89%.

As to `O=C(NCc1ncnn1-c1ccc(Cl)c(F)c1)NCc1ncnn1C1CCOCC1` [Compound 5, 3-{[1-(4-chloro-3-fluorophenyl)-1H-1,2,4-triazol-5-yl]methyl}-1-{[1-(oxan-4-yl)-1H-1,2,4-triazol-5-yl]methyl}urea], the AC50 worked out at 420 nM and the Emax came to 47%.

As for `O=C(NCc1ncnn1-c1ccc(Cl)c(F)c1)NCc1nnnn1-c1ccc(Cl)c(F)c1` [Compound 31, 3-{[1-(4-chloro-3-fluorophenyl)-1H-1,2,3,4-tetrazol-5-yl]methyl}-1-{[1-(4-chloro-3-fluorophenyl)-1H-1,2,4-triazol-5-yl]methyl}urea], half-maximal activity (AC50) was put at 14 nM and the Emax amounted to 76%.

Turning to `Cc1cc(-n2nnnc2CNC(=O)NCc2nnnn2-c2ccc(F)c(C)c2)ccc1F` [Compound 62, 1,3-bis({[1-(4-fluoro-3-methylphenyl)-1H-1,2,3,4-tetrazol-5-yl]methyl})urea], half-maximal activity (AC50) was put at 210 nM and the Emax is 66%.

The record behind these values is US20230278984A1 (Global Blood Therapeutics, Inc., priority 2020, published 2023).
